Results on 31 molecules are retold here after ChEMBL document CHEMBL3351528, “Targeting dopamine D3 and serotonin 5-HT1A and 5-HT2A receptors for developing effective antipsychotics: synthesis, biological characterization, and behavioral studies” (J Med Chem, 2014).

One series deals with D(3) dopamine receptor (Homo sapiens, UniProt P35462).
The target of series [1] is 5-hydroxytryptamine receptor 2A (Homo sapiens, UniProt P28223).
Description: Binding affinity to 5HT2A receptor (unknown origin)
Series [2] has as its target T1, 5-hydroxytryptamine receptor 1A (Homo sapiens, UniProt P08908).
T1 sequence (P08908 whole entry): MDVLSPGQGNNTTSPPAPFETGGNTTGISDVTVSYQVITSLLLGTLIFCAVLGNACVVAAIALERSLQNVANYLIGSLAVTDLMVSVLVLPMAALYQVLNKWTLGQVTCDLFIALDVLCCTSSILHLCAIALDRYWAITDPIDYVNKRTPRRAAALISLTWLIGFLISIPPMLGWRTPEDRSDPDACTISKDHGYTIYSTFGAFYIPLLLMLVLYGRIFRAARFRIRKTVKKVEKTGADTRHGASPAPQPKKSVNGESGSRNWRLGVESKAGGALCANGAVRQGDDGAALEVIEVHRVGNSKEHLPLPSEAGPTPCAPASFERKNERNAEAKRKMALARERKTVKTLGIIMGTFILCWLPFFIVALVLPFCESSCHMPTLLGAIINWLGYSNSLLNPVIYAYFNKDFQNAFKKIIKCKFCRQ
Description: Binding affinity to 5HT1A receptor (unknown origin)

The next series deals with D(2) dopamine receptor (Homo sapiens, UniProt P14416).
For series [3], the target named is T2, 5-hydroxytryptamine receptor 2C (Homo sapiens, UniProt P28335).
T2 sequence (P28335 whole entry): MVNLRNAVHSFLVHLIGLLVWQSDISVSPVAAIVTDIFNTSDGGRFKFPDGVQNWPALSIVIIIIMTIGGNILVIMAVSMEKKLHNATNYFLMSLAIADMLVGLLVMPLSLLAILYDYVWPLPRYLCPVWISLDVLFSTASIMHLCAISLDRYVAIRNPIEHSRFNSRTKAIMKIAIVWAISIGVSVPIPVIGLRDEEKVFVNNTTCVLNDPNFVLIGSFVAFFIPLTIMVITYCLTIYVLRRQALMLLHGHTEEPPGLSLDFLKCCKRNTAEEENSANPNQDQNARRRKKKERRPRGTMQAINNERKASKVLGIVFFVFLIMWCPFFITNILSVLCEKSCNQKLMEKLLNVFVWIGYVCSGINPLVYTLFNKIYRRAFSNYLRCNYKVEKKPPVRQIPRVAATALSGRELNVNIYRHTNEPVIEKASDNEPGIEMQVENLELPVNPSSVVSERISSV
Description: Binding affinity to 5HT2C receptor (unknown origin)

The species named for series [4] is Mus musculus. Kind of series: animal or person. As to conditions: NMRI, sc; for minimal effective dose: read-out: MED.
Description: Antipsychotic-like activity in sc dosed NMRI mouse assessed as reduction in methamphetamine-induced locomotor activity dosed 15 to 30 mins before administration of methamphetamine measured for 60 mins
For series [5], the species on record is Mus musculus. The following applies: in vivo, sc, 0.5 h.
Description: Effect on spontaneous exploratory locomotor activity in sc dosed NMRI mouse measured for 30 mins with activity counts each 5 mins
The species named for series [6] is Mus musculus. Kind of series: animal or person. The following applies: NMRI, sc, read-out: MED.
Description: Antipsychotic-like activity in sc dosed NMRI mouse assessed as reduction in PCP-induced locomotor activity dosed 15 to 30 mins before administration of methamphetamine measured for 60 mins

D(2) dopamine receptor, sequence (P14416 whole entry): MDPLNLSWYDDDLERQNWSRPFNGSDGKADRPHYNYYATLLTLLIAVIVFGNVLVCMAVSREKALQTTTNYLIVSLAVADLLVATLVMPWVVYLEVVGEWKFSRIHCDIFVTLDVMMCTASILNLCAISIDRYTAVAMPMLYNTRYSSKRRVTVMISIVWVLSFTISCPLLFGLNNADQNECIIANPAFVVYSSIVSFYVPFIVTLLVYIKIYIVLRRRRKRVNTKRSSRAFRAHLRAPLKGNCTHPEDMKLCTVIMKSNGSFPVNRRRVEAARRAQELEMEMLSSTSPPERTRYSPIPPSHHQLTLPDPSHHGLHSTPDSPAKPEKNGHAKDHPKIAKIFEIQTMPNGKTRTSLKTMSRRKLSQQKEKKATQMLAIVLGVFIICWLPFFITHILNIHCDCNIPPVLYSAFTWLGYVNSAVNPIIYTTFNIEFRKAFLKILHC
D(3) dopamine receptor, sequence (P35462 whole entry): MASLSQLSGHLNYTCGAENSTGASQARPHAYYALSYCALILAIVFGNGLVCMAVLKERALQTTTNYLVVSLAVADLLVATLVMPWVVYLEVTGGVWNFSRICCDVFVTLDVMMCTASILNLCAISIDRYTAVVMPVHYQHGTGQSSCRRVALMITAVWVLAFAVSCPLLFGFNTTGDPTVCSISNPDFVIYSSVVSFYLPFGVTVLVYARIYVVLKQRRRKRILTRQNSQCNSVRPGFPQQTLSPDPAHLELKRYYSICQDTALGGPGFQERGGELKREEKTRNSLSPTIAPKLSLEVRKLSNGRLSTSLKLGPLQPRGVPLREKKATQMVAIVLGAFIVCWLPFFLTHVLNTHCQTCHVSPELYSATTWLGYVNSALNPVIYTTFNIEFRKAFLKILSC
5-hydroxytryptamine receptor 2A, sequence (P28223 whole entry): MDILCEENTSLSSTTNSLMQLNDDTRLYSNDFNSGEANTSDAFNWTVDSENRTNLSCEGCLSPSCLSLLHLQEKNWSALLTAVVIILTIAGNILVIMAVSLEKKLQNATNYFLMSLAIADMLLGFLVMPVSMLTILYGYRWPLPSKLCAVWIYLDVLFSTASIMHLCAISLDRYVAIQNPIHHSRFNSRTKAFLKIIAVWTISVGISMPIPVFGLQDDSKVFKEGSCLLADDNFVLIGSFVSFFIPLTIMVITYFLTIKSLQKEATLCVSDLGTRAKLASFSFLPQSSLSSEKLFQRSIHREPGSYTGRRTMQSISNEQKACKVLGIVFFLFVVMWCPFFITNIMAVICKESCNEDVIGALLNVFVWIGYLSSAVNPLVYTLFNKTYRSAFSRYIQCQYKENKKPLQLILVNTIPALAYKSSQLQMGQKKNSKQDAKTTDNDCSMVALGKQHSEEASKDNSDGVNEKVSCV
Description for D(2) dopamine receptor: Binding affinity to dopamine D2 receptor (unknown origin)
Description for D(3) dopamine receptor: Binding affinity to dopamine D3 receptor (unknown origin)

Usually Ki stands for the equilibrium dissociation constant of an inhibitor or competing ligand from its target. Read a high Ki as a looser hold on the target. Regarding `COc1cccc(N2CCN(CCCCNC(=O)c3cc4ccccc4o3)CC2)c1`, the Ki at D(3) dopamine receptor is 8.8 nM; in series [1] it was 40 nM; in series [2], 17 nM; at D(2) dopamine receptor, greater than 1000 nM; in series [3], 173 nM.
With `COc1cccc(N2CCN(CCCCNC(=O)c3ccccn3)CC2)c1`, the Ki at D(3) dopamine receptor is 214 nM; in series [1], 179 nM; in series [2], 36 nM; at D(2) dopamine receptor, greater than 1000 nM; in series [3] it was greater than 1000 nM.
Usually ED50 stands for the midpoint of the dose-response relation. Low readings indicate an effect at a small dose, high ones a need for a large dose. For `O=C(CCCN1CCC(O)(c2ccc(Cl)cc2)CC1)c1ccc(F)cc1` [HALOPERIDOL], the ED50 in the series filed under Mus musculus [4] was 0.09 mg/kg; in the series listed under Mus musculus [5] it was 0.08 mg/kg.
For the molecule `COc1cccc(N2CCN(CCCCNC(=O)c3cccc(C)n3)CC2)c1`, the Ki at D(3) dopamine receptor was 27 nM; in series [1] it was 238 nM; in series [2], 44 nM; at D(2) dopamine receptor, greater than 1000 nM; in series [3] it was greater than 1000 nM.
`O=C(NCCCCN1CCN(c2cnc3ccccc3c2)CC1)c1ccccc1`: the Ki at D(3) dopamine receptor is 40 nM; in series [1], greater than 1000 nM; in series [2], greater than 1000 nM; on D(2) dopamine receptor it was 1 nM; in series [3] it was greater than 1000 nM.
Turning to `O=C(NCCCCN1CCN(c2ccccc2)CC1)c1ccccn1`, the Ki was 144 nM at D(3) dopamine receptor; 100 nM in series [1]; 52 nM in series [2]; greater than 1000 nM at D(2) dopamine receptor; greater than 1000 nM in series [3]. The results for the minimal effective dose in the series listed under Mus musculus [6] and in the series listed under Mus musculus [4] were greater than 3 mg/kg and 1 mg/kg, respectively. For the same molecule, the MED in the series listed under Mus musculus [5] stood at 3 mg/kg.
With `O=C(NCCCCN1CCN(c2cnc3ccccc3c2)CC1)c1cc2ccccc2cn1`, the Ki at D(3) dopamine receptor is 14 nM; in series [1], 1000 nM; in series [2], greater than 1000 nM; at D(2) dopamine receptor, greater than 1000 nM; in series [3], 479 nM.
Take `Cc1cccc(N2CCN(CCCCNC(=O)[C@H]3CCc4ccccc4N3)CC2)c1`: the Ki at D(3) dopamine receptor worked out at 122 nM; in series [1], 77 nM; in series [2], 117 nM; at D(2) dopamine receptor, 3410 nM; in series [3], 450 nM.
On to `Cc1cccc(N2CCN(CCCCNC(=O)c3ccccc3)CC2)n1`, for which the Ki on D(3) dopamine receptor was 73 nM; in series [1] it was 83 nM; in series [2], 3 nM; at D(2) dopamine receptor, greater than 1000 nM; in series [3], greater than 1000 nM. Also, the minimal effective dose in the series listed under Mus musculus [6] is greater than 3 mg/kg; in the series listed under Mus musculus [4], 1 mg/kg. The MED in the series filed under Mus musculus [5] was greater than 3 mg/kg.
As for `O=C(NCCCCN1CCN(c2ccc(O)cc2)CC1)c1cc2ccccc2cn1`, the Ki on D(3) dopamine receptor was 24 nM; in series [1] it was 17 nM; in series [2], greater than 1000 nM; at D(2) dopamine receptor it was greater than 1000 nM; in series [3] it was 400 nM.
On to `COc1cccc(N2CCN(CCCCNC(=O)c3ccccn3)CC2)n1`, for which the Ki at D(3) dopamine receptor was 200 nM; in series [1], 140 nM; in series [2] it was 8 nM; on D(2) dopamine receptor it was greater than 1000 nM; in series [3], 43 nM. In addition, the minimal effective dose in the series filed under Mus musculus [6] and in the series filed under Mus musculus [4] was 3 mg/kg each time. Besides, the MED in the series listed under Mus musculus [5] was greater than 3 mg/kg.
In the case of `O=C(NCCCCN1CCN(c2ccccc2)CC1)[C@@H]1CCc2ccccc2N1`, the Ki on D(3) dopamine receptor was 45 nM; in series [1] it was 22 nM; in series [2], 85 nM; on D(2) dopamine receptor it was greater than 1000 nM; in series [3], greater than 1000 nM.
As to `O=C(NCCCCN1CCN(c2ccccc2F)CC1)c1cc2ccccc2o1`, the Ki on D(3) dopamine receptor amounted to 0.3 nM; in series [1] it was 18 nM; in series [2] it was 15 nM; at D(2) dopamine receptor, 76 nM; in series [3], 79 nM.
Consider `O=C(NCCCCN1CCN(c2cccc(F)c2)CC1)c1cc2ccccc2cn1`, for which the Ki was 3 nM on D(3) dopamine receptor; 11 nM in series [1]; 11 nM in series [2]; 160 nM on D(2) dopamine receptor; 230 nM in series [3].
Take `O=C(NCCCCN1CCN(c2ccccn2)CC1)c1ccc2ccccc2n1`: the Ki at D(3) dopamine receptor is 186 nM; in series [1], 69 nM; in series [2] it was 24 nM; on D(2) dopamine receptor it was greater than 1000 nM; in series [3], greater than 1000 nM.
As to `COc1cccc(N2CCN(CCCCNC(=O)c3cc4ccccc4n3C)CC2)c1`, the Ki at D(3) dopamine receptor turned out to be 1.7 nM; in series [1] it was 311 nM; in series [2] it was 10 nM; on D(2) dopamine receptor, 219 nM; in series [3], 311 nM.
For the molecule `O=C(NCCCCN1CCN(c2cccc3ccccc23)CC1)c1ccccc1`, the Ki at D(3) dopamine receptor was 0.9 nM; in series [1] it was 3 nM; in series [2], 0.7 nM; on D(2) dopamine receptor it was 58 nM; in series [3] it was 6 nM.
Consider `Cc1cccc(N2CCN(CCCCNC(=O)c3cc4ccccc4cn3)CC2)n1`, for which the Ki at D(3) dopamine receptor was 46 nM; in series [1], 28 nM; in series [2], 2 nM; on D(2) dopamine receptor, greater than 1000 nM; in series [3], 57 nM.
As for `COc1cccc(N2CCN(CCCCNC(=O)c3c[nH]c4ccccc34)CC2)c1`, the Ki at D(3) dopamine receptor is 40 nM; in series [1], 164 nM; in series [2] it was 59 nM; at D(2) dopamine receptor, greater than 1000 nM; in series [3], 602 nM.
On the same counts, the results for `O=C(NCCCCN1CCN(c2ncccn2)CC1)c1cc2ccccc2cn1` are 204 nM, 1230 nM, 67 nM, greater than 1000 nM and greater than 1000 nM.
The like results for `O=C(NCCCCN1CCN(c2ccccc2)CC1)c1cccnc1` were, in that order, 62 nM, 216 nM, 85 nM, greater than 1000 nM and greater than 1000 nM.
The like results for `Cc1cccc(N2CCN(CCCCNC(=O)c3cc4ccccc4o3)CC2)n1` were, in that order, 24 nM, 27 nM, 2 nM, greater than 1000 nM and 61 nM.
For `O=C(NCCCCN1CCN(c2ccccc2)CC1)[C@H]1CCc2ccccc2N1`, the Ki at D(3) dopamine receptor is 73 nM; in series [1], 50 nM; in series [2] it was 9.9 nM; on D(2) dopamine receptor it was greater than 1000 nM; in series [3] it was greater than 1000 nM.
Regarding `O=C(NCCCCN1CCN(c2cccc(C(F)(F)F)c2)CC1)c1cc2ccccc2[nH]1`, the Ki at D(3) dopamine receptor is 0.2 nM; in series [1], 4 nM; in series [2], 1.9 nM; on D(2) dopamine receptor it was 53 nM; in series [3], 22 nM.
On the same counts, the results for `COc1cccc(N2CCN(CCCCNC(=O)c3ccc4ccccc4n3)CC2)c1` are 31 nM, 70 nM, 26 nM, greater than 1000 nM and 155 nM.
As for `Cc1cccc(N2CCN(CCCCNC(=O)c3ccccn3)CC2)n1`, the Ki was greater than 1000 nM on D(3) dopamine receptor; 240 nM in series [1]; 3 nM in series [2]; greater than 1000 nM on D(2) dopamine receptor; greater than 1000 nM in series [3].
Consider `O=C(NCCCCN1CCN(Cc2ccccc2)CC1)c1cc2ccccc2o1`, for which the Ki on D(3) dopamine receptor was 560 nM; in series [1], greater than 1000 nM; in series [2], greater than 1000 nM; on D(2) dopamine receptor, greater than 1000 nM; in series [3], greater than 1000 nM.
On to `O=C(NCCCCN1CCN(c2ccccc2)CC1)c1ccc2ccccc2n1`, for which the Ki on D(3) dopamine receptor was 61 nM; in series [1], 98 nM; in series [2], 94 nM; on D(2) dopamine receptor, greater than 1000 nM; in series [3], 475 nM.
In the case of `Cc1cccc(N2CCN(CCCCNC(=O)c3cc4ccccc4o3)CC2)c1`, the results for the Ki in series [1], in series [2] and in series [3] were 15.3 nM, 11.9 nM and 206 nM, respectively.
In the case of `O=C(NCCCCN1CCN(c2ccccn2)CC1)c1cc2ccccc2cn1`, the Ki at D(3) dopamine receptor stood at 41 nM; in series [1], 822 nM; in series [2], 16 nM; on D(2) dopamine receptor, 5600 nM; in series [3] it was 1350 nM.
On the same counts, the results for `Cc1cccc(N2CCN(CCCCNC(=O)[C@@H]3CCc4ccccc4N3)CC2)c1` are 159 nM, 5.1 nM, 43 nM, greater than 1000 nM and 73.4 nM.
